Experimental data taken from patent US12410178B2, “Small cationic ortho-5,15-di-heteroaryl-porphyrin derivatives and their applications in photoinactivation of microorganisms” (UNIVERSIDADE DE COIMBRA, priority 2019, dated 2025).

Tests used:
[1] = tested on: Acinetobacter baumannii 141HUC; assay: PDI phototoxicity towards multidrug-resistant planktonic bacteria (CFU); format: cell-based; conditions: 60 min incubation, 1.36 J/cm^2 at 415 nm
Protocol: (§1) Phototoxicity towards bacteria was evaluated in vitro. Assays were performed with the following bacteria: Escherichia coli ATCC 25922, Pseudomonas aeruginosa ATCC 27853 and Staphylococcus aureus ATCC 29213. Further assay were performed with clinical antibiotic-resistant strains from the Centro Hospitalar da Universidade de Coimbra, namely Staphylococcus aureus methicillin-resistant (MRSA) strain Sa1CHUC recovered from the skin of a burnt patient (resistant to all beta-lactamic antibiotics), and Acinetobacter baumannii 141HUC isolated from an exudate of a burn wound and highly resistant to all beta-lactamics (penicillins, cephalosporins, monobactams and carbapenems), quinolones and the aminoglycosides gentamicin and netilmicin. The planktonic bacteria cells were cultured in Mueller Hinton (MH) agar (Sigma Aldrich) at 37° C. overnight. Cell density was adjusted to the 0.5 McFarland standard in sterile water, which corresponds to approximately 1.5×10^8 CFU/mL. For PDI experiments cell suspensions of bacteria were incubated with various concentrations of the photosensitizers for 1 h, in the dark, at room temperature, using a 96 well plate. Then, the plate was illuminated with a blue light LED (420 nm, 4 mJ/s). Cells incubated with photosensitizers in the dark were covered with aluminum foil for the same time as the PDI groups (1 h). After illumination (or dark incubation) samples were shaken, diluted in PBS and mixed. Aliquots were taken from each well and streaked in MH agar in duplicate for CFU determination and incubated for 37° C./18-24 h in the dark. After 24 h, the colonies were counted and CFU determined. The experiments were performed in triplicate. Statistical analysis was performed with GraphPad Prism 6.
(§2) This example describes the evaluation of in vitro phototoxicity against multidrug-resistant Gram-positive and Gram-negative bacteria of the cationic ortho-5,15-di-heteroaryl porphyrin with Formula (IIa). Assays were performed with clinical resistant strains from the Centro Hospitalar da Universidade de Coimbra, namely Staphylococcus aureus methicillin-resistant (MRSA) strain Sa1CHUC collected from the skin of a burnt patient (resistant to all beta-lactamic antibiotics), and Acinetobacter baumannii 141HUC highly resistant all beta-lactamics, including carbapenems, quinolones, gentamicin and netilmicin, isolated from an exudate of a burn wound. The phototoxicity was measured according to the description in the Materials and Methods section. […] There is a dose-phototoxicity response of the test compound relative to the non-treated control. FIG. 9 illustrates the CFU reduction as a function of photosensitizer concentration for the light dose of 1.36 J/cm^2 at 415 nm.

[2] = tested on: Staphylococcus aureus methicillin-resistant (MRSA) strain Sa1CHUC; assay: as above; format: cell-based; conditions: 60 min incubation, 1.36 J/cm^2 at 415 nm
Protocol: as §1, §2

[3] = tested on: Staphylococcus aureus ATCC 25925 biofilms; assay: PDI phototoxicity towards biofilms (CFU); format: cell-based
Protocol: Phototoxicity towards biofilms was evaluated after biofilm growth overnight. Assays were performed with biofilms from Staphylococcus aureus ATCC 25925. Initially, bacteria cultures were diluted 1:9 in Brain Heart Infusion (BHI) (Kasvi®, Brazil). The microorganisms were centrifuged (1500 rpm, 10 min) and washed twice with phosphate-buffered saline (PBS). Aliquots of the diluted bacterial suspensions were inoculated into 24-well flat-bottom sterile polystyrene microplates and incubated for 24 h at 37° C. For PDI experiments, the plates with biofilms were incubated with 5.2 nM of the photosensitizer for 30 min in the dark at room temperature. Wells used as controls were incubated with PBS only. After that, the plates were illuminated with a specially designed light source named Biotable®. The Biotable® was composed by 24 LED lamps that deliver a uniform light fluence rate of 30 mW/cm^2 in the wavelength range between 400-650 rm. […] After this time, the colonies were counted and the colony-forming units (CFU) determined.
For the phototoxicity study, Staphylococcus aureus ATCC 25925 biofilms grown on 24-well flat-bottom sterile polystyrene microplates were incubated with 5.2 nM of the cationic ortho-5,15-di-heteroaryl porphyrin with Formula (IIa) for 30 min in the dark at room temperature. […] After this time, the colonies were counted and CFU determined. […]

[4] = Fluorescence quantum yield; format: physicochemical; conditions: standard TPP in toluene
Protocol: Fluorescence Emission: The fluorescence emission spectra were recorded in a Horiba Scientific Spectrofluorometer Fluoromax-4. The spectra were collected from 550 nm up to 800 nm using standard cuvettes of 1 cm of optical path. Fluorescence quantum yields (ΦF) were obtained comparing the area of integrated fluorescence of the samples with that of a reference fluorimetric compound with known ΦF, corrected by the absorption of sample and reference at the excitation wavelength and by the refractive indices of the solvents used for the standard and reference solution. Tetraphenylporphyrin (TPP) in toluene (ΦF=0.11) was used as standard. The absorbance of the solutions at the excitation wavelength was 0.01.

[5] = Singlet oxygen quantum yield; format: physicochemical; conditions: excitation 355 nm, reference phenalenone
Description: Singlet Oxygen Quantum Yield: The experiments were run at room temperature. The solutions were excited at 355 nm using a Nd-YAG laser (Spectra-Physics Quanta-Ray GRC-130) and the phosphorescence of singlet oxygen collected at 1270 nm in a Hamamatsu R5509-42 photomultiplier, cooled to 193 K in a liquid nitrogen chamber, after selection of the wavelength with a monochromator with 600 lines grading. A Newport filter model 10LWF-1000-B was used in the emission to avoid scattering and fluorescence. Phenalenone was used as a reference of singlet oxygen generator, ΦΔ^Ref=0.98. Extrapolating to time-zero the decays of the singlet molecular oxygen emissions measured for sample and the reference solutions at a given laser intensity, we obtained a relation between emission intensities as a function of laser intensity, that is identical to the relation between the singlet molecular oxygen quantum yields. The singlet oxygen quantum yields were obtained by comparing the linear dependence between and the energy of the laser pulse for both the sample and the reference for the same absorption of sample and reference at the excitation wavelength, taking into account the singlet oxygen quantum yield of phenalenone.

Q: With `Cn1cc[n+](C)c1C1=C2C=CC3=[N+]2[Zn@]24[n]5c(ccc51)C=C1C=CC(=[N+]12)C(c1n(C)cc[n+]1C)=c1ccc([n]14)=C3` [Formula (IIa), 5,15-bis(1,3-dimethylimidazol-2-yl)porphyrinate zinc (II) diiodide] as the compound, how does the “reduction of the number of bacterial CFU (in words)” value ([1]; 1 μM) read?
A: Its value is “dramatic decrease in CFU”.

Q: And the “log CFU at 1 μM, Acinetobacter 141Hu” value ([1]; planktonic)?
A: Its value is 7.

Q: What about the “reduction of the number of bacterial CFU (in words)” value ([2]; 1 μM) of the same compound?
A: Its value is “dramatic decrease in CFU”.

Q: What about the “log CFU at 1 μM, S. Aureus MRSA” value ([2]; planktonic) of the same compound?
A: The value was 7.

Q: What about the “log CFU at 5.2 nM, S. Aureus biofilm” value ([3]; 5.2 nM, biofilm, 5 J/cm^2, 400-650 nm, 30 min incubation) of the same compound?
A: The value was 7.

Q: What about the “reduction of bacteria in the biofilm” value ([3]; ca. 5 nM, 5 J/cm^2 of white light) of the same compound?
A: Its value is 7 orders of magnitude.

Q: What about the “ΦF fluorescence quantum yield” value [4] of the same compound?
A: The value was 0.10.

Q: What about the “ΦΔ singlet oxygen generation quantum yield” value [5] of the same compound?
A: Its value is 0.75.
